The subject of data set [1] is HFF cell microtubules. Nature of the data set: Tubulin immunofluorescence and SFEX quantification of vertebrate microtubules. In kind it is cell-based, human. The conditions noted are these: at or above the EC50 for oryzalin, clemastine, astemizole; versus vehicle control.
Protocol: Vertebrate sensitivity is assessed using tubulin immunofluorescence to visualize microtubule networks after drug treatment of uninfected human HFF cells in culture (Figure 3A). To quantify microtubule polymer density between treatments, we used the SFEX program [19] to segment and enumerate filaments in a fixed-size region of interest. Treatment with the vertebrate microtubule-depolymerizing colchicine-site ligand combretastatin A4 [32] was used as a positive control to ensure that the SFEX parameters captured partial, as well as total, loss of cytoplasmic microtubules.
HFF cells were seeded subconfluently onto sterile 12-mm circular glass coverslips in 6-well dishes. Cells were grown to semiconfluency (3–4 days). Cultures were exposed to DMSO (vehicle control) and drugs of interest for 60 min at 37 °C. These samples were fixed and permeabilized with ice-cold methanol for 3–5 min and blocked in 10% BSA in Ca^2+, Mg^2+-free PBS at room temperature for 30 min or overnight at 4 °C. […] The open-source software Stress Fiber Extractor 1.0 [19] was used to quantify assembled tubulin (microtubules) present in HFF-cell immunofluorescence images within MATLAB R2015a, using the “Stress Fiber Network” analysis feature. […] Quantitative analysis of the segmented filaments was performed with the Stress Fiber Extractor, with export of data into Excel (Microsoft, Redmond, WA, USA). […]
The subject of data set [2] is RH-GFP T. gondii. The conditions noted are these: GFP-expressing parasites per vacuole, tracked up to 36 h.
The nature of data set [3]: in vitro. The settings on record: human. As for the experimental part: Because replicating cells may be more vulnerable than confluent monolayers, we evaluated survival of both subconfluent (dividing) and confluent (contact-inhibited) HFF cultures after 72 h of exposure to increasing drug concentrations (Supplemental Figure S4). […] Using this information, we calculated the in vitro therapeutic index for these drugs, which is the ratio of the CC50 to the EC50.
For subconfluent monolayers, approximately 5 × 10^4 HFF cells were plated into each well of a 24-well dish and exposed to D10+ media alone or D10+ with DMSO or drug for 3 days. The plates were processed with the In Vitro Toxicology Assay Kit, MTT based (Sigma Aldrich, TOX1), and A570 was measured in a SpectraMax I3X plate reader. Exported data were analyzed using Microsoft Excel. For confluent monolayers, approximately 5 × 10^4 HFF cells were plated into each well of a 24-well dish and grown in D10+ media alone. Once the cells were confluent, they were gently rinsed with PBS, and D10+ with DMSO or drug was added to each well. The plates were processed as above.

Data set [4] relates to RH-GFP parasites. The format is cell-based, Toxoplasma gondii. The settings on record: drugs at their EC50 concentrations, clemastine +/− pretreatment. As to the method:
The red-green invasion assay using GFP-expressing tachyzoites was adapted from the original protocol. HFF cells were grown to confluency on coverslips in 6-well dishes. RH-GFP parasites were harvested from infected host cells by syringe passage through a 27-gauge needle. Tachyzoites were allowed to adhere to host cells for 20 min at 37 °C in a high-potassium “Endo” buffer. The buffer was replaced with warm invasion medium (DMEM + various drug conditions). Parasite invasion occurred under control or drug-treated conditions for 3 min (short invasion time) or 30 min (long invasion time) at 37 °C in a humidified 5% CO2 incubator. After invasion, samples were washed with PBS, fixed with formyl saline without subsequent permeabilization, stained with mouse anti-SAG1 antibody (Invitrogen, Waltham, MA, USA: D61S, 1:1000), and detected with a goat anti-mouse secondary antibody conjugated to Alexa Fluor 594 (Invitrogen A11005, 1:1000). Extracellular, invading, and intracellular parasites were scored from 10 random microscope fields. Invasion was calculated by dividing the number of intracellular parasites by the total number of parasites counted.

Data set [5] deals with Toxoplasma RH strain tachyzoites. The conditions noted are these: read-out: EC50, Toxoplasma RH Strain; plaque area relative to control after 7 days in HFF monolayers.
Protocol: (§1) To assess this, we gauged the therapeutic index by measuring compound EC50 for Toxoplasma tachyzoites grown in vertebrate host cells versus the CC50 for uninfected human foreskin fibroblast (HFF) cells. […] After 1 week of parasite growth, we visualized lytic destruction of crystal violet-stained host cells to reveal macroscopic plaques in the monolayer (Figure 2B). Greyscale images of individual wells were analyzed with the open-source program ImageJ [18] using the “threshold” functionality to differentiate between cells (dark gray) and plaques (white). The program calculates plaque number, average size, and percent total area within the field. The EC50 value is determined by graphing the relationship between compound concentrations and percent total plaque area relative to control cultures. […] HFF cells were grown to confluency in 6-well dishes and infected with 300 tachyzoites/well. Individual wells were treated with varying concentrations of drug, and the plates were left undisturbed for 7 days at 37 °C in a humidified 5% CO2 incubator. […] Greyscale photographic images of the plates were analyzed in ImageJ (NIH, Bethesda, MD, USA) using the “threshold” functionality. Plaque number, average size and percent total area were calculated by the program. […]
The test system is the same in data set [6]. Nature of the data set: microbe, parasite or virus in culture. The conditions noted are these: 168 h, read-out: EC50, Toxoplasma RH Strain, plaque area relative to control after 7 days in HFF monolayers.
Protocol: as §1
Data set [7] has as its system Toxoplasma tachyzoite subpellicular microtubules. The data set can be described thus: Subpellicular microtubule length in deoxycholate-extracted tachyzoites (ImageJ). The format is cell-based, Toxoplasma gondii. The settings on record: drug-treated tachyzoites versus vehicle controls. As for the experimental part: In parallel, we assessed the effect of these candidate tubulin-targeting agents on parasite microtubules, also via tubulin immunofluorescence. Because tachyzoite subpellicular microtubules are unusually resistant to detergent extraction due to the association of SPM1 and other stabilizing luminal proteins, these structures can be specifically isolated for analysis. Vehicle- and drug-treated parasites were incubated with deoxycholate, and the extracted subpellicular microtubule arrays were detected with tubulin immunofluorescence (Figure 4A). Images of parasite microtubules were measured using ImageJ.
To measure the length distribution of Toxoplasma tachyzoite subpellicular microtubules in control and treated parasites, we isolated subpellicular microtubule complexes by deoxycholate extraction of freshly lysed tachyzoites. Briefly, RH parasites were treated with DMSO or candidate drugs in culture for 2 days. Following lysis of host cells, extracellular parasites were centrifuged at 1000× g for 20 min at 4 °C and then resuspended in 1 mL of PBS. Parasites were settled onto poly-l-lysine (Sigma)-coated coverslips for 15 min at room temperature. Coverslips were incubated with 10 mg/mL deoxycholate (DOC) in phosphate-buffered saline (PBS) for 10 min to extract the subpellicular microtubule cytoskeleton. Samples were fixed in 3.7% formyl saline (Sigma) at room temperature for 10–15 min, followed by immunostaining for tubulin, as described above. Extracted subpellicular microtubules in immunofluorescence images were measured using ImageJ.

The subject of data set [8] is Toxoplasma. Set-up: method as in PMID 28609444. The conditions noted are these: cited from earlier work.
Data set [9] deals with α-tubulin in T. gondii tachyzoites. Nature of the data set: Immunoblot quantification of α-tubulin protein in tachyzoites. The format is cell-based, Toxoplasma gondii. The conditions noted are these: clemastine-treated tachyzoites (8 μM in Figure 4D); DMSO control 0.022. An excerpt:
Parasite equivalents and known concentrations of porcine tubulin standards were resolved by SDS-PAGE for subsequent immunoblot analysis using a broadly cross-reacting α-tubulin monoclonal antibody that recognizes both vertebrate and Toxoplasma tubulin. Band intensity was quantified with ImageJ, and the porcine samples were used to create a standard curve to determine α-tubulin concentration in Toxoplasma samples normalized to parasite equivalents.
The samples were resolved on a 10% SDS-polyacrylamide gel (Bio-Rad) and blotted to nitrocellulose for immunoblot analysis. Blots were probed with a mouse anti-α-tubulin antibody (Sigma T9026; 1:5000) and detected with an IgG anti-mouse secondary antibody conjugated to HRP (Promega, Madison, WI, USA: W4021, 1:10,000). Samples were imaged using a Nikon D700 fitted with a 55 mm f/1.4 Nikkor auto-focus lens and intervening 12 mm Kenko auto-focus extension tube [46]. Exposure times were controlled with a Satechi TRC-B remote shutter control. Band intensity was quantified using ImageJ.

Where “and” joins values, the source holds several entries; their conditions need not be identical. Identical values can stand only once. Entries after “also recorded” stand apart in the source; their conditions may differ. Like-named read-outs stand apart in the source and are kept apart here.

Turning to `COc1ccc(CCN2CCC(Nc3nc4ccccc4n3Cc3ccc(F)cc3)CC2)cc1` [Astemizole], in [1], the “Effect on vertebrate (HFF) microtubules, in words” value is recorded as “do not significantly differ from the vehicle control”. Further, the “Effect on tachyzoite replication” value in data set [2] is “No delays in replication are detected at 36 hours; also recorded: did not detect overt slowing of replication”. Further, the CC50 at 72 h in data set [3] (HFF CC50 confluent) is 18 µM; in data set [3] (HFF CC50 subconfluent), 8.83 µM. In addition, in data set [4], the “Effect on tachyzoite invasion” value is on record as “does not affect invasion”. Moreover, the EC50 was 2.07 µM in data set [5] and roughly 2 µM in [6]. Moreover, the “Effect on Toxoplasma subpellicular microtubule length, in words” value in data set [7] is “smaller but significant decreases in filament length; also recorded: small but significant decrease in microtubule length”.

Consider Parabulin, for which the “Effect on Toxoplasma subpellicular microtubule length, in words” value in data set [7] was “significant reduction in microtubule length; also recorded: significant microtubule shortening relative to control samples”.

Consider `OCCOCCN1CCN(C(c2ccccc2)c2ccc(Cl)cc2)CC1` (stereo not shown) [hydroxyzine], for which, in data set [8], the concentration giving a half-maximal response (EC50) was 1 µM.

On to `CN1CCC[C@@H]1CCO[C@](C)(c1ccccc1)c1ccc(Cl)cc1` [Clemastine], for which, in [2], the “Effect on tachyzoite replication” value is “No delays in replication are detected at 36 hours; also recorded: did not detect overt slowing of replication”. The “α-tubulin (pg)/tachyzoite” value in data set [9] is 0.02 pg/tachyzoite and ~ 0.02 pg/tachyzoite. In addition, the “Effect on tachyzoite invasion” value in [4] was “does not affect invasion”.

On to `CCc1nc(N)nc(N)c1-c1ccc(Cl)cc1` [Pyrimethamine], for which the “Effect on Toxoplasma subpellicular microtubule length, in words” value is “does not reduce microtubule length” in data set [7] and “not different to that of the vehicle controls” in data set [7] (listed as pyrimethamine).

On to `COc1ccc(/C=C\c2cc(OC)c(OC)c(OC)c2)cc1O` [Combretastatin A4, combretastatin A4], for which the “Effect on vertebrate (HFF) microtubules, in words” value in data set [1] is recorded as “dose-dependent microtubule disassembly”.
